Assay results reported in patent publication US4075332A (priority 1976, dated 1978).
Where two headings read alike, the source gives them in different places.

Experiments:
[1] = test system: insects, mites and nematodes; experiment: Overall pesticidal activity in the greenhouse and laboratory tests (in words); assay type: in vivo
Protocol: In Examples 14-29 which follow, the new dithiophosphate compositions of the present invention were tested in the greenhouse and in the laboratory to determine their biological activity. Structurally related, known compounds, usually leading cmmercial compounds, were also tested side-by-side to determine the relative pesticidal effectiveness of the new compounds.
(§1) In the insecticidal and miticidal tests, the experimental compounds were tested as aqueous emulsions. These emulsions were prepared by dissolving the compound in acetone and dispersing it in distilled water with Triton X-100, an alkylaryl polyether alcohol derived by the reaction of i-octylphenol with ethylene oxide, to give spray emulsions containing the desired concentrations of the compound. These emulsions were then used in standard laboratory tests described below.

[2] = test system: Southern army worm; details: in vivo
[3] = test system: Mexican bean beetle; experiment: whole plant or invertebrate; details: Epilachna varivestis
[4] = test system: House fly; experiment: whole plant or invertebrate; details: Musca domestica, 48 h
[5] = test system: Corn rootworm larvae; experiment: whole plant or invertebrate; details: soil, 120 h
[6] = test system: Spider mites; experiment: whole plant or invertebrate; details: Tetranychus urticae; for mortality at 10 ppm: read-out: Spider Mites Mortality,%
[7] = test system: Bean aphids; experiment: whole plant or invertebrate; details: Aphis fabae, 48 h
[8] = test system: Root-knot nematode; details: in vivo
[9] = test system: Spider mites; experiment: Mite, Systemic; assay type: in vivo, two-spotted mite; details: Tetranychus urticae, read-out: Mortality Produced, % - Spider Mites Systemic
Protocol: as §1
Mite, Systemic: Bean plants infested with the two-spotted mites were treated by applying 20 ml. of the formulated test chemical to the soil.

[10] = test system: Cabbage looper; experiment: Field control of cabbage looper on collards (Example 28); assay type: in vivo; details: Table XVI; 1.5 lbs/acre; nil 5.3; higher ratings indicate more damage
From the text: (§2) King Cole cabbage and Vates Collards were transplanted on Feb. 1. Cabbage treatments were made on 50 ft. rows and replicated 4 times. Collard treatments were made on 25 ft. rows and replicated 4 times. Collard and cabbage rows were placed side-by-side and were flanked by guard rows. Except for insecticide treatment, the plots were managed in accordance with recommended farming practice for the area. Chemicals were applied on April 3, 10, 17, 24, May 1, 8, 15, 22 and 29, and readings were made on June 1.

[11] = test system: Fall armyworm; experiment: Field control of fall armyworm on sweet corn (Example 28); assay type: in vivo
Protocol: (§3) Corn plots were planted on March 22. Each treatment was made on a 50 ft. row flanked by guard rows. Treatments were replicated 4 times and the average rating is reported. Except for insecticide treatment, the plots were managed in accordance with recommended farming practice for the area.
Fall armyworm plots on sweet corn were treated on May 13, 20 and 27. Readings were made on May 29.

[12] = test system: House fly; details: in vivo, 48 h
[13] = test system: Corn earworm; experiment: Field control of corn earworm on corn (Example 28); assay type: in vivo
From the text: as §3
Corn earworm applications were made during silking on May 29, June 1, 2, 3, 4, 5, 8, 9, 10, 11 and 12. Readings were made on June 15.

[14] = test system: Bean aphids; experiment: Aphid, Systemic; assay type: in vivo, bean aphid; details: Aphis fabae, 48 h, read-out: Mortality Produced, % - Bean Aphids Systemic
Protocol: as §1
Aphid, Systemic: Nasturtium plants infested with the bean aphid were treated by applying 20 ml. of the formulated test chemical to the soil. The degree of aphid control was rated after 2 days.

[15] = test system: Spider mites; details: in vivo, 48 h
[16] = test system: Cabbage looper; experiment: Field control of cabbage looper on cabbage (Example 28); assay type: in vivo; details: Table XVI; 1.5 lbs/acre; nil 5.9; higher ratings indicate more damage
From the text: as §2

[17] = test system: Mexican bean beetle; details: in vivo
[18] = in vivo; details: rat, po
[19] = test system: warm blooded animals; experiment: Toxicity towards warm blooded animals (in words); assay type: in vivo; details: summary statements
Protocol: Each compound tested was administered orally by stomach tube to five to eight groups of five male albino rate of the Sprague Dawley strain, weighing 220 to 300 grams at various dosage levels. Following incubation, the animals were closely observed for mortality and toxic effects at intervals for 14 days. Statistical analysis of the mortality data was carried out to determine the median lethal dosages (LD50) according to the method of W. R. Thompson as described in the Journal Bact. Rev. in Vol. 11, pages 115-145 in 1947, utilizng the tables of H. J. Horn published in the Journal Biometrics, Vol. 12, page 311 in 1956. The LD50 dosages are expressed in mg weights of test material per kg weight of rat used.

[20] = test system: Lepidoptera; experiment: Activity against Lepidoptera / pest spectrum (in words); assay type: in vivo
[21] = test system: Corn rootworm larvae; details: in vivo, 120 h
[22] = test system: powdery mildew fungus (Erysiphe Polygoni); experiment: Bean Powdery Mildew eradicant test; assay type: in vivo; details: Table III; 200 ppm
[23] = test system: Bean aphids; details: bean aphid, in vivo, 48 h
[24] = test system: Sclerotium; experiment: Sclerotium soil fungicide test; assay type: in vivo; details: Table III; 100 lb/acre
Protocol: Sterilized soil was inoculated with Solerotium and placed into a 4-ounce "Dixie cup", and drenched with 20 ml. of an emulsion of the test chemical. The cup was then incubated for 2 days at 70° F. Thereafter, the amount of mycelial growth on the soil surface was rated and the control by the chemical estimated accordingly.

[25] = test system: bean rust fungus (Uromyces Phaseoli); experiment: Bean Rust systemic eradicant test; assay type: in vivo; details: Table III; 200 ppm
Protocol: Pinto bean plants were inoculated 24 hours prior to use as above and the soil in the pot was then treated with 20 ml. of an emulsion of the test chemical. The rest of the test and the evaluation were then carried out an above for Bean Powdery Mildew.

[26] = test system: bean rust fungus (Uromyces Phaseoli); experiment: Bean Rust eradicant test; assay type: in vivo; details: Table III; 200 ppm
Protocol: In these tests, the experimental compounds were tested in aqueous emulsions, prepared in the same manner as was previously described above with respect to the insecticidal and miticidal tests.
Pinto bean plants with fully expanded primary leaves were inoculated with spores of the bean rust fungus (Uromyces Phaseoli) and incubated for 24 hours. The test were then carried out as described above for Bean Powdery Mildew.

[27] = read-out: Mortality Produced at 50 ppm, % - Mexican Bean Beetles
[28] = read-out: Mortality Produced at 50 ppm, % - Houseflies
[29] = read-out: Corn Rootworm Mortality, % at 2.5 ppm
[30] = read-out: Mortality Produced at 50 ppm, % - Spider Mites
[31] = read-out: Mortality Produced at 50 ppm, % - Bean Aphids
[32] = read-out: Mexican Bean Beetles Mortality,%
[33] = read-out: Corn Rootworm Mortality,%
[34] = read-out: Bean Aphids Mortality,%
[35] = read-out: Mortality Produced, % - Mex.Bean Beetle
[36] = read-out: Mortality Produced, % - House Flies
[37] = 48 h, read-out: Mortality Produced, % - Spider Mites Contact
[38] = read-out: Mortality Produced, % -
[39] = read-out: Mortality Produced, % - Bean Aphids Contact

For `CCCSP(=O)(OCC)SCC(SC)C(C)(C)C` (centres unmarked) [Example 39, O-Ethyl S-1-Propyl S'-2-Methylthio-3,3-Dimethylbutyl Dithiophosphate], the “insecticidal activity at 50 ppm (in words)” value ([1]; 50 ppm) was “very little insecticidal activity”, the “Mortality Produced at 50 ppm, % - Southern Army Worm” value ([2]; southern armyworm) was 0% and the mortality at 50 ppm [3, 27] was 0%. It also gave a mortality at 50 ppm [4, 28] of 20%, a mortality at 2.5 ppm [5, 29] of 80% and a mortality at 50 ppm [6, 30] of 100%. For the same compound, the mortality at 50 ppm [7, 31] was 30%.

With `CCCCCCSC(C)CSP(=O)(OCC)SCCC` (centres unmarked) [Example 36, O-Ethyl S-1-Propyl S'-2-n-Hexylthiopropyl Dithiophosphate] the “pesticidal activity (in words)” value ([1]; summary statements) was “decreased level of activity”, the “Nematode Control,%” value [8] was 10% and the “S.Armyworm Mortality,%” value [2] was 100%. The mortality at 50 ppm [3, 32] was 100%, the mortality at 2.5 ppm [5, 33] was 0% and the mortality at 10 ppm [6] was 90%. It also gave a mortality at 50 ppm [7, 34] of 50%.

In the case of `CCCSP(=O)(OCC)SCC(C)SC` (centres unmarked) [Example 32, O-Ethyl S-1-Propyl S'-2-Methylthiopropyl dithiophosphate], the mortality at 50 ppm [9] is reported as 100%, the mortality at 250 ppm [9] is reported as 100% and the “Nematode Control,%” value [8] is reported as 100%. For the same compound, the “Nematodes Control % at 25 lb/acre” value [8] was 100%, the “Cabbage Looper Harvest Rating - Collards” value [10] was 2.0 and the “Fall Armyworm Injury Free Stalks of Sweet Corn, %” value ([11]; Table XVI, 0.75 lbs/acre, nil 67) was 91%. For the same compound, the “control of fall armyworm (in words)” value ([11]; sweet corn, 0.75 lbs. per acre) was “well controlled”, the “Mortality Produced, % - House Flies” value [12] was 100% and the “S.Armyworm Mortality,%” value [2] was 100%. For the same compound, the “Mortality Produced at 50 ppm, % - Southern Army Worm” value ([2]; southern armyworm) was 100%, the “Mortality Produced, % - S.Army Worm” value ([2]; southern armyworm) was 100% and the “control of corn earworms (in words)” value ([13]; 0.5 lbs per acre) was “excellent control”. The “Corn Earworm, % Clean Ears” value ([13]; Table XVI, 0.5 lbs/acre, nil 36) was 94%, the mortality at 50 ppm [3, 32] was 100% and the mortality at 50 ppm [3, 27] was 100%. For the same compound, the mortality at 50 ppm [3, 35] was 100%, the mortality at 250 ppm [3, 35] was 100% and the mortality at 50 ppm [14] was 0%. It also gave a mortality at 250 ppm [14] of 100%, a mortality at 50 ppm [4, 28] of 100% and a mortality at 50 ppm [4, 36] of 100%. The mortality at 250 ppm [4, 36] was 100%, the “Mortality Produced, % - Spider Mites Contact” value ([15]; two-spotted spider mite) was 100% and the mortality at 2.5 ppm [5, 29] was 100%. It also gave a mortality at 2.5 ppm [5, 33] of 100%, a mortality at 50 ppm [6, 37] of 100% and a mortality at 250 ppm [6, 37] of 100%. It also gave a mortality at 50 ppm [6, 30] of 100%, a mortality at 10 ppm [6] of 100% and a mortality at 50 ppm [7, 34] of 100%. It also gave a mortality at 50 ppm [7, 31] of 100%, a mortality at 50 ppm [7, 38] of 100% and a mortality at 250 ppm [7, 38] of 100%. The mortality at 50 ppm [7, 39] was 100%, the mortality at 250 ppm [7, 39] was 100% and the “Cabbage Looper Harvest Rating - Cabbage” value [16] was 3.8. For the same compound, the “Mortality Produced, % - Mex.Bean Beetle” value [17] was 100% and the LD50 at 336 h [18] was 109 mg/kg.

With `CCCSC(C)CSP(=O)(OCC)SCCC` (centres unmarked) [Example 34, O-Ethyl S-1-Propyl S'-2-n-Propylthiopropyl Dithiophosphate] the “Nematode Control,%” value [8] was 100%, the “S.Armyworm Mortality,%” value [2] was 100% and the mortality at 50 ppm [3, 32] was 100%. For the same compound, the “toxicity (in words)” value [19] was “particularly low toxicity”, the mortality at 2.5 ppm [5, 33] was 100% and the mortality at 10 ppm [6] was 100%. The mortality at 50 ppm [7, 34] was 100% and the LD50 at 336 h [18] was 422 mg/kg.

With `CCCSP(=O)(OCC)SCC(C)SC(C)=O` (centres unmarked) [Example 13, O:ETHYL S-1-PROPYL S-2-ACETYLTHIOPROPYL DITHIOPHOSPHATE] the “pesticidal spectrum / activity against Lepidoptera” value [20] was “shows the broad pesticidal spectrum and the specific activity against Lepidoptera”.

With `CCCSP(=O)(OCC)SCC(C)SCC` (centres unmarked) [Example 33, O-Ethyl S-1-Propyl S'-2-Ethylthiopropyl Dithiophosphate] the “Nematode Control,%” value [8] was 100%, the “Pest Control, % - Nematode Control (25 lb/acre)” value [8] was 100% and the “Pest Control, % - Corn Rootworm (0.25 ppm)” value [21] was 100%. For the same compound, the “Control of Foliar Fungi, % - Bean Mildew Eradicant” value [22] was 70%, the “Pest Control, % - Bean Aphids Contact” value [23] was 100% and the “S.Armyworm Mortality,%” value [2] was 100%. The mortality at 50 ppm [3, 32] was 70%, the “Control of Sclerotium, %” value [24] was 60% and the “Control of Foliar Fungi, % - Bean Rust Systemic Eradicant” value [25] was 90%. The “Control of Foliar Fungi, % - Bean Rust Eradicant” value [26] was 80%, the “Pest Control, % - Spider Mites Contact” value ([15]; spider mite) was 100% and the mortality at 2.5 ppm [5, 33] was 100%. The mortality at 10 ppm [6] was 100%, the mortality at 50 ppm [7, 34] was 100% and the “Pest Control, % - Mex. Bean Beetle” value [17] was 100%. The LD50 at 336 h [18] was 214 mg/kg.
